What was measured:
Assay in all cases: relative viability (nuclei count vs DMSO), 5 days (fraction); higher = more cells survive
[1] = compound: CN(c1ncccc1CNc1nc(Nc2ccc3c(c2)CC(=O)N3)ncc1C(F)(F)F)S(C)(=O)=O + COc1cccc2cc(-c3nc([C@H]4CC[C@H](C(=O)O)CC4)n4ncnc(N)c34)[nH]c12 [OSI-027] (partner 0.5 µM)
How it was run: (§1)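 Five library-drug doses in √10 steps were combined with a fixed anchor-drug dose, or a single drug was given alone, by pin tool to lung cancer cell lines in 1536-well plates the day after seeding. Nuclei were stained and counted after 5 days. Relative viability is the nuclei count in treated wells over that in vehicle wells, taken as the median of duplicate plates.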

[2] = compound: CN(c1ncccc1CNc1nc(Nc2ccc3c(c2)CC(=O)N3)ncc1C(F)(F)F)S(C)(=O)=O + CC(=O)Nc1cccc(-n2c(=O)n(C3CC3)c(=O)c3c(Nc4ccc(I)cc4F)n(C)c(=O)c(C)c32)c1 [Trametinib] (partner 0.02 µM)
How it was run: as §1

[3] = compound: CN(c1ncccc1CNc1nc(Nc2ccc3c(c2)CC(=O)N3)ncc1C(F)(F)F)S(C)(=O)=O + N=C(N)NC(=N)NCCc1ccccc1 [Phenformin] (partner 250 µM)
How it was run: as §1

[4] = compound: CN(c1ncccc1CNc1nc(Nc2ccc3c(c2)CC(=O)N3)ncc1C(F)(F)F)S(C)(=O)=O + C[C@@H](Oc1cc(-c2cnn(C3CCNCC3)c2)cnc1N)c1c(Cl)ccc(F)c1Cl [Crizotinib] (partner 1 µM)
How it was run: as §1

Cell Line | relative viability ([1]; first compound 0.01 µM) | relative viability ([1]; first compound 0.03162 µM) | relative viability ([1]; first compound 0.1 µM) | relative viability ([1]; first compound 0.3162 µM) | relative viability ([1]; first compound 1 µM) | relative viability ([2]; first compound 0.01 µM) | relative viability ([2]; first compound 0.03162 µM) | relative viability ([2]; first compound 0.1 µM) | relative viability ([2]; first compound 0.3162 µM) | relative viability ([2]; first compound 1 µM) | relative viability ([3]; first compound 0.01 µM) | relative viability ([3]; first compound 0.03162 µM) | relative viability ([3]; first compound 0.1 µM) | relative viability ([3]; first compound 0.3162 µM) | relative viability ([3]; first compound 1 µM) | relative viability ([4]; first compound 0.01 µM) | relative viability ([4]; first compound 0.03162 µM) | relative viability ([4]; first compound 0.1 µM) | relative viability ([4]; first compound 0.3162 µM) | relative viability ([4]; first compound 1 µM)
NCI-H3122 | 0.976 | 1.07 | 0.762 | 1.06 | 0.954 | 0.244 | 0.257 | 0.214 | 0.22 | 0.201 | 0.389 | 0.373 | 0.36 | 0.317 | 0.354 | 0.283 | 0.289 | 0.283 | 0.278 | 0.241
PC-3 [JPC-3] | 0.722 | 0.742 | 0.739 | 0.805 | 0.768 | 0.669 | – | 0.712 | 0.696 | 0.554 | 0.522 | 0.488 | 0.505 | 0.471 | 0.481 | 0.968 | 0.992 | 1.02 | 0.927 | 0.841
PC-14 | 0.931 | 1.05 | 0.895 | 1.13 | 0.809 | 0.82 | 0.909 | 0.891 | 0.726 | 0.619 | 0.726 | 0.59 | 0.563 | 0.565 | 0.715 | 0.874 | 0.858 | 1.04 | 0.872 | 0.765
RERF-LC-KJ | 0.632 | 0.585 | 0.529 | 0.656 | 0.573 | 0.76 | 0.905 | 0.949 | 0.904 | 0.937 | 0.409 | 0.458 | 0.419 | 0.463 | 0.412 | 0.841 | 0.823 | 0.85 | 0.779 | 0.86
SK-LU-1 | 0.343 | 0.411 | 0.371 | 0.351 | 0.284 | 0.479 | 0.556 | 0.489 | 0.449 | 0.45 | 0.579 | 0.597 | 0.453 | 0.472 | 0.371 | 0.944 | 0.882 | 0.858 | 0.808 | 0.784
SK-MES-1 | 0.562 | 0.571 | 0.475 | 0.491 | 0.429 | 0.562 | 0.532 | 0.558 | 0.57 | 0.513 | 0.698 | 0.63 | 0.658 | 0.596 | 0.513 | 0.943 | 0.989 | 0.944 | 0.983 | 0.846
SW 1573 | 0.549 | 0.669 | 0.569 | 0.738 | 0.559 | 0.568 | 0.567 | 0.531 | 0.636 | 0.449 | 0.383 | 0.405 | 0.381 | 0.412 | 0.314 | 0.874 | 0.732 | 0.777 | 0.843 | 0.78
UMC-11 | 0.461 | 0.477 | 0.45 | 0.459 | 0.421 | 0.762 | 0.761 | 0.794 | 0.72 | 0.539 | 0.333 | 0.366 | 0.334 | 0.314 | 0.262 | 0.59 | 0.584 | 0.654 | 0.476 | 0.298
